Measurements taken from US11912718B2, “Solid forms of a thienopyrimidinedione ACC inhibitor and methods for production thereof” (Gilead Apollo, LLC, priority 2016, dated 2024).

Legend:
[1] = Study B: multiple oral dose pharmacokinetics, 10 days; type: in vivo, human; conditions: for AUC(0-inf) / Cmax / half-life / Tmax / AUC(0-t): human, in vivo, oral
Protocol: Study B (five (5) cohorts of 8 subjects (6 active and 2 placebo)) evaluated 50 mg twice daily (BID) (100 mg daily), 100 mg once daily (QD) (100 mg daily), 100 mg BID (200 mg daily), 200 mg QD (200 mg daily), or 150 mg QD (150 mg daily), or matching placebo. Subjects received multiple oral doses of Compound 1 or placebo for 9 consecutive days, with a single oral dose of Compound 1 or placebo on the morning of Day 10. Doses were administered approximately 30 minutes after meals.
Table 13 summarizes PK parameters of Study B after 10 days. The reported factors may vary up to about 2%.

[2] = Study A: single oral dose pharmacokinetics in healthy subjects; type: in vivo, human; conditions: for AUC(0-t) / Tmax / AUC(0-inf) / Cmax / half-life: human, plasma, fasted; for AUC(0-t): po; for AUC(0-t) / AUC(0-inf) / Cmax / half-life: mean ± SD; for Tmax: Mean (Min, Max)
Protocol: Study A evaluated the safety and tolerability of 30, 80, 200, 500, 800, and 1000 mg in the fasted state and 200 mg following a high fat meal (fed state) to cohorts of 8 healthy subjects (6 active and 2 placebo control per group).
Table 12 summarizes PK parameters (mean) under fasted conditions of Study A. The reported factors may vary up to about 2%.

[3] = 100 mg, 100 mg BID, Day 1, value available for one subject

COc1ccccc1[C@H](Cn1c(=O)n(C(C)(C)C(=O)O)c(=O)c2c(C)c(-c3ncco3)sc21)OC1CCOCC1 [Compound 1, (R)-2-(1-(2-(2-methoxyphenyl)-2-((tetrahydro-2H-pyran-4-yl)oxy)ethyl)-5-methyl-6-(oxazol-2-yl)-2,4-dioxo-1,2-dihydrothieno[2,3-d]pyrimidin-3(4H)-yl)-2-methylpropanoic acid]
AUC(0-inf) ([1]; 50 mg, 50 mg BID, Day 1): 178 ± 41 ng·h/mL | Cmax ([1]; 50 mg, 50 mg BID, Day 1): 41 ± 14 ng/mL | half-life ([1]; 50 mg, 50 mg BID, Day 1): 3.5 ± 1.6 h | Tmax ([1]; 50 mg, 50 mg BID, Day 1, Mean (Min, Max)): 2.4 h | AUC(0-t) ([1]; 50 mg, 50 mg BID, Day 1, read-out: AUC0-12): 143 ± 29 ng·h/mL | AUC(0-t) ([1]; 50 mg, 50 mg BID, Day 1, read-out: AUC0-t): 143 ± 29 ng·h/mL | half-life ([1]; 50 mg, 50 mg BID, Day 10): 10.3 ± 6.7 h | AUC(0-t) ([1]; 50 mg, 50 mg BID, Day 10, read-out: AUC0-t): 403 ± 104 ng·h/mL | Cmax ([1]; 50 mg, 50 mg BID, Day 10 steady state): 49 ± 15 ng/mL | Tmax ([1]; 50 mg, 50 mg BID, Day 10 steady state, Mean (Min, Max)): 4.5 h | Cmax ([1]; 100 mg, 100 mg BID, Day 1): 61.6 ± 15 ng/mL | Tmax ([1]; 100 mg, 100 mg BID, Day 1, Mean (Min, Max)): 5.2 h | AUC(0-t) ([1]; 100 mg, 100 mg BID, Day 1, read-out: AUC0-12): 345 ± 78 ng·h/mL | AUC(0-t) ([1]; 100 mg, 100 mg BID, Day 1, read-out: AUC0-t): 345 ± 77 ng·h/mL | AUC(0-inf) [1, 3]: 671 ng·h/mL | half-life [1, 3]: 5.6 h | half-life ([1]; 100 mg, 100 mg BID, Day 10): 6.8 ± 1.6 h | AUC(0-t) ([1]; 100 mg, 100 mg BID, Day 10, read-out: AUC0-t): 1120 ± 362 ng·h/mL | Cmax ([1]; 100 mg, 100 mg BID, Day 10 steady state): 121 ± 56 ng/mL | Tmax ([1]; 100 mg, 100 mg BID, Day 10 steady state, Mean (Min, Max)): 5.2 h | AUC(0-inf) ([1]; 100 mg, 100 mg QD, Day 1): 278 ± 110 ng·h/mL | Cmax ([1]; 100 mg, 100 mg QD, Day 1): 65 ± 32 ng/mL | half-life ([1]; 100 mg, 100 mg QD, Day 1): 4.3 ± 0.7 h | AUC(0-t) ([1]; 100 mg, 100 mg QD, Day 1, read-out: AUC0-12): 234 ± 86 ng·h/mL | AUC(0-t) ([1]; 100 mg, 100 mg QD, Day 1, read-out: AUC0-t): 268 ± 96 ng·h/mL | half-life ([1]; 100 mg, 100 mg QD, Day 10): 7.9 ± 4.5 h | AUC(0-t) ([1]; 100 mg, 100 mg QD, Day 10, read-out: AUC0-12): 285 ± 115 ng·h/mL | AUC(0-t) ([1]; 100 mg, 100 mg QD, Day 10, read-out: AUC0-t): 400 ± 181 ng·h/mL | Cmax ([1]; 100 mg, 100 mg QD, Day 10 steady state): 54 ± 22 ng/mL | Tmax ([1]; 100 mg, 100 mg QD, Day 10 steady state, Mean (Min, Max)): 4.5 h | AUC(0-inf) ([1]; 150 mg, 150 mg QD, Day 1): 587 ± 254 ng·h/mL | Cmax ([1]; 150 mg, 150 mg QD, Day 1): 94 ± 40 ng/mL | half-life ([1]; 150 mg, 150 mg QD, Day 1): 3.9 ± 1.1 h | Tmax ([1]; 150 mg, 150 mg QD, Day 1, Mean (Min, Max)): 3.3 h | AUC(0-t) ([1]; 150 mg, 150 mg QD, Day 1, read-out: AUC0-12): 489 ± 218 ng·h/mL | AUC(0-t) ([1]; 150 mg, 150 mg QD, Day 1, read-out: AUC0-t): 572 ± 247 ng·h/mL | half-life ([1]; 150 mg, 150 mg QD, Day 10): 6.6 ± 2.8 h | AUC(0-t) ([1]; 150 mg, 150 mg QD, Day 10, read-out: AUC0-12): 637 ± 246 ng·h/mL | AUC(0-t) ([1]; 150 mg, 150 mg QD, Day 10, read-out: AUC0-t): 933 ± 424 ng·h/mL | Cmax ([1]; 150 mg, 150 mg QD, Day 10 steady state): 111 ± 52 ng/mL | Tmax ([1]; 150 mg, 150 mg QD, Day 10 steady state, Mean (Min, Max)): 6.5 h | AUC(0-inf) ([1]; 200 mg, 200 mg QD, Day 1): 979 ± 286 ng·h/mL | Cmax ([1]; 200 mg, 200 mg QD, Day 1): 152 ± 68 ng/mL | half-life ([1]; 200 mg, 200 mg QD, Day 1): 5.9 ± 3.6 h | Tmax ([1]; 200 mg, 200 mg QD, Day 1, Mean (Min, Max)): 4.7 h | AUC(0-t) ([1]; 200 mg, 200 mg QD, Day 1, read-out: AUC0-12): 707 ± 191 ng·h/mL | AUC(0-t) ([1]; 200 mg, 200 mg QD, Day 1, read-out: AUC0-t): 868 ± 220 ng·h/mL | half-life ([1]; 200 mg, 200 mg QD, Day 10): 5.9 ± 1 h | AUC(0-t) ([1]; 200 mg, 200 mg QD, Day 10, read-out: AUC0-12): 1220 ± 362 ng·h/mL | AUC(0-t) ([1]; 200 mg, 200 mg QD, Day 10, read-out: AUC0-t): 2050 ± 819 ng·h/mL | Cmax ([1]; 200 mg, 200 mg QD, Day 10 steady state): 198 ± 87 ng/mL | Tmax ([1]; 200 mg, 200 mg QD, Day 10 steady state, Mean (Min, Max)): 3.7 h | change of maximal exposure (Cmax) from Day 1 to Day 10 ([1]; multiple dosing, all regimens): generally increased | increase of overall exposure (AUCt) on Day 10 compared to Day 1 ([1]; multiple dosing, all regimens): 1.5-3.0 fold | range of mean t1/2 independent of dose or regimen on each study day ([1]; multiple dosing, all regimens): ≤ 2 fold | maximum plasma exposure (Cmax) lower under fed compared to fasted conditions ([2]; 200 mg, fed (high fat meal) versus fasted): approximately 68% | mean t1/2, CL/F, Vz/F and median tmax, fed versus fasted ([2]; 200 mg, fed and fasted conditions): comparable | AUC(0-t) ([2]; 30 mg, single oral dose 30 mg, read-out: AUC0-t): 176 ± 104 ng·h/mL | AUC(0-t) ([2]; 80 mg, single oral dose 80 mg, read-out: AUC0-12): 395 ± 198 ng·h/mL | AUC(0-t) ([2]; 80 mg, single oral dose 80 mg, read-out: AUC0-t): 363 ± 215 ng·h/mL | AUC(0-t) ([2]; 200 mg, single oral dose 200 mg, read-out: AUC0-12): 1000 ± 545 ng·h/mL | AUC(0-t) ([2]; 200 mg, single oral dose 200 mg, read-out: AUC0-t): 1210 ± 536 ng·h/mL | AUC(0-t) ([2]; 500 mg, single oral dose 500 mg, read-out: AUC0-12): 1240 ± 547 ng·h/mL | AUC(0-t) ([2]; 500 mg, single oral dose 500 mg, read-out: AUC0-t): 2930 ± 2440 ng·h/mL | AUC(0-t) ([2]; 800 mg, single oral dose 800 mg, read-out: AUC0-t): 6420 ± 3180 ng·h/mL | AUC(0-t) ([2]; 1000 mg, single oral dose 1000 mg, read-out: AUC0-t): 17400 ± 8400 ng·h/mL | Tmax ([2]; single oral dose 30 mg): 1.3 h | AUC(0-inf) ([2]; single oral dose 30 mg): 179 ± 115 ng·h/mL | Cmax ([2]; single oral dose 30 mg): 80 ± 66 ng/mL | half-life ([2]; single oral dose 30 mg): 4.5 ± 1.6 h | Tmax ([2]; single oral dose 80 mg): 1.8 h | AUC(0-inf) ([2]; single oral dose 80 mg): 402 ± 225 ng·h/mL | Cmax ([2]; single oral dose 80 mg): 101 ± 48 ng/mL | half-life ([2]; single oral dose 80 mg): 7 ± 2.8 h | Tmax ([2]; single oral dose 200 mg): 1.9 h | AUC(0-inf) ([2]; single oral dose 200 mg): 1250 ± 616 ng·h/mL | Cmax ([2]; single oral dose 200 mg): 416 ± 22 ng/mL | half-life ([2]; single oral dose 200 mg): 12 ± 1.4 h | Tmax ([2]; single oral dose 500 mg): 1.9 h | AUC(0-inf) ([2]; single oral dose 500 mg): 2960 ± 2460 ng·h/mL | Cmax ([2]; single oral dose 500 mg): 1110 ± 1150 ng/mL | half-life ([2]; single oral dose 500 mg): 10.2 ± 2.1 h | Tmax ([2]; single oral dose 800 mg): 2.1 h | AUC(0-inf) ([2]; single oral dose 800 mg): 6460 ± 3190 ng·h/mL | Cmax ([2]; single oral dose 800 mg): 2570 ± 1880 ng/mL | half-life ([2]; single oral dose 800 mg): 8.2 ± 3.3 h | Tmax ([2]; single oral dose 1000 mg): 2.4 h | AUC(0-inf) ([2]; single oral dose 1000 mg): 17500 ± 8410 ng·h/mL | Cmax ([2]; single oral dose 1000 mg): 8380 ± 3210 ng/mL | half-life ([2]; single oral dose 1000 mg): 9.5 ± 2.6 h
